Test results as given in patent US20230124361A1, “SMALL MOLECULE STING ANTAGONISTS” (CURADEV PHARMA PVT. LTD., priority 2020, published 2023).
pIC50: −log10 of the molar value.

Molecular target: T1, STING (Homo sapiens, UniProt Q86WV6, G230A/H232R/R293Q/R71H)
T1 construct: host or cells: THP1-Dual cells (human THP-1 monocyte line with Lucia/SEAP reporters)
Experiment: Reporter gene expression assay in THP1-Dual cells (IRF pathway Lucia luciferase, 2',3'-cGAMP stimulation)
Assay type: cell-based
Conditions: 10 min preincubation, 5 μM 2',3'-cGAMP, 20 hr, IRF reporter QUANTI-Luc, read-out: THP-1 (HAQ) Activity
Procedure: Reporter Gene Expression Assay in THP-1 Cells
THP1-Dual™ cells (Invivogen) were derived from the human THP-1 monocyte cell line by stable integration of two inducible reporter constructs. As a result, THP1-Dual™ cells allow the simultaneous study of the IRF pathway, by assessing the activity of a secreted luciferase (Lucia) and the NF-κB pathway, by monitoring the activity of secreted SEAP. 5×10^4 THP1-Dual™ cells were seeded in 384-well plates in growth medium and preincubated with novel compounds for 10 minutes followed by stimulation with 5 μM 2′,3′-cGAMP. After 20 hr of stimulation the supernatant was removed and the IRF pathway reporter protein was readily measured in the cell culture supernatant using QUANTI-Luc™ (Invivogen), a luciferase detection reagent on a Spectramax i3X luminometer.
In the tables below, IC50 value ranges for exemplary compounds are given. The IC50 ranges are indicated as “A” for values less than or equal to 1 μM, “B” for values greater than 1 μM and less than or equal to 10 μM, and “C” for values greater than 10 μM.

T1 sequence (Q86WV6 whole entry R71H/G230A/H232R/R293Q): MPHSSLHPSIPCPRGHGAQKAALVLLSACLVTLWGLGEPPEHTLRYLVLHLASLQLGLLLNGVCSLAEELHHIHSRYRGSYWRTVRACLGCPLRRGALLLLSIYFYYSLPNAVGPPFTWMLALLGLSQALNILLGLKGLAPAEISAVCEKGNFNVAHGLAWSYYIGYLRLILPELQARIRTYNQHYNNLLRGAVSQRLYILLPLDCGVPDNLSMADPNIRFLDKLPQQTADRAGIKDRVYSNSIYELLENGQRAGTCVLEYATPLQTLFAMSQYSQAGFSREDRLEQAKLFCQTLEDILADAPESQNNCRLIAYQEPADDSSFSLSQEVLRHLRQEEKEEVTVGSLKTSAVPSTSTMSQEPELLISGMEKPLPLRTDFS

| Compound | pIC50 |
| --- | --- |
| O=C(Nc1ccc(F)cc1)Nc1ccc2c(c1)N(Cc1cn3ccccc3n1)C(=O)CS2 [Example 26, 1-(4-fluorophenyl)-3-(4-(imidazo [1,2-a]pyridin-2-ylmethyl)-3-oxo-3,4-dihydro-2H-benzo[b][1, 4]thiazin-6-yl)urea] | 5.00 to 6.00 |
| Cn1ccc2ccc(NC(=O)Nc3ccc4c(c3)N(Cc3ccccc3)C(=O)CS4)cc21 [Example 27, 1-(4-benzyl-3-oxo-3,4-dihydro-2H-benzo[b] [1,4]thiazin-6-yl)-3-(1-methyl-1H-indol-6-yl)urea] | < 5.00 |
| O=C(Nc1ccc2c(c1)N(Cc1ccccc1)C(=O)CS2)Nc1ccc2cn[nH]c2c1 [Example 28, 1-(4-benzyl-3-oxo-3,4-dihydro-2H-benzo[b][1, 4]thiazin-6-yl)-3-(1H-indazol-6-yl)urea] | 5.00 to 6.00 |
| CN(C(=O)Nc1ccc2cc[nH]c2c1)c1ccc2c(c1)N(Cc1ccccc1)C(=O)CS2 [Example 31, 1-(4-benzyl-3-oxo-3,4-dihydro-2H-benzo[b][1, 4]thiazin-6-yl)-3-(1H-indol-6-yl)-1-methylurea] | 5.00 to 6.00 |
| CC1Sc2ccc(NC(=O)Nc3ccccc3)cc2N(Cc2ccccc2)C1=O (stereo not drawn) [Example 32, 1-(4-benzyl-2-methyl-3-oxo-3,4-dihydro-2H-benzo[b][1, 4]thiazin-6-yl)-3-phenylurea] | 5.00 to 6.00 |
| C[C@H]1c2ccc(NC(=O)Nc3ccc(F)cc3)cc2N(Cc2ccccc2)C(=O)N1C [Example 38, (S)-1-(1-benzyl-3,4-dimethyl-2-oxo-1,2,3,4-tetrahydro-quinazolin-7-yl)-3-(4-fluorophenyl)urea] | < 5.00 |
| CN1Cc2ccc(NC(=O)Nc3ccc4cc[nH]c4c3)cc2N(Cc2ccccc2)C1=O [Example 40] | 5.00 to 6.00 |
| O=C1CSc2ccc(OCCc3ccc(F)cc3)cc2N1Cc1c(F)cccc1Cl [Example 41, 4-(2-Chloro-6-fluorobenzyl)-6-(4-fluorophenethoxy)-2H-benzo[b][1,4]thiazin-3(4H)-one] | 5.00 to 6.00 |
| O=C1CSc2ccc(-c3nnc(Cc4ccccc4)[nH]3)cc2N1Cc1c(F)cccc1Cl [Example 45] | 5.00 to 6.00 |
| O=C(Cc1ccco1)Nc1ccc2c(c1)N(Cc1ccccc1)C(=O)CS2 [Example 48, N-(4-benzyl-3-oxo-3,4-dihydro-2H-benzo[b][1,4]thiazin-6-yl)-2-(furan-2-yl)acetamide] | < 5.00 |
| O=C(c1ccccc1)N1CCSc2ccc(S(=O)(=O)NCc3ccco3)cc21 [Example 49, 4-benzoyl-N-(furan-2-ylmethyl)-3,4-dihydro-2H-benzo[b][1,4]thiazine-6-sulfonamide] | < 5.00 |
| O=C(Nc1ccc(F)cc1)Nc1ccc2c(c1)SCC(=O)N2Cc1ccccc1 [Example 52, 1-(4-benzyl-3-oxo-3,4-dihydro-2H-benzo[b][1, 4]thiazin-7-yl)-3-(4-fluorophenyl) urea] | 5.00 to 6.00 |
| Nc1cccc(CN2C(=O)CSc3ccc(NC(=O)Nc4ccc5cc[nH]c5c4)cc32)c1 [Example 53, l-(4-(3-aminobenzyl)-3-oxo-3,4-dihydro-2H-benzo[b][1, 4]thiazin-6-yl)-3-(1H-indol-6-yl)urea] | < 5.00 |
| O=C(Nc1ccc2c(c1)N(Cc1ccccc1)C(=O)CS2)c1ccc2cc[nH]c2c1 [Example 55, N-(4-benzyl-3-oxo-3,4-dihydro-2H-benzo[b][1,4]thiazin-6-yl)-1H-indole-6-carboxamide] | 5.00 to 6.00 |
| O=C(Nc1ccc2c(c1)N(Cc1ccccc1)CCO2)Nc1ccc2cc[nH]c2c1 [Example 56, 1-(4-benzyl-3,4-dihydro-2H-benzo[b][1, 4]oxazin-6-yl)-3-(1H-indol-6-yl)urea] | 5.00 to 6.00 |
| O=C(Nc1ccc2c(c1)OCCN2Cc1ccccc1)Nc1ccc2cc[nH]c2c1 [Example 62, 1-(4-Benzyl-3,4-dihydro-2H-benzo[b][1,4]oxazin-7-yl)-3-(1H-indol-6-yl)urea] | < 5.00 |
| O=C(Nc1ccc2c(c1)SCCN2Cc1ccccc1)Nc1ccc2cc[nH]c2c1 [Example 63, 1-(4-benzyl-3,4-dihydro-2H-benzo[b][1, 4]thiazin-7-yl)-3-(1H-indol-6-yl)urea] | < 5.00 |
| O=C(Nc1ccc2c(c1)N(Cc1ccccc1)CCS2)Nc1c[nH]c2ccccc12 [Example 64, 1-(4-benzyl-3,4-dihydro-2H-benzo[b][1, 4]thiazin-6-yl)-3-(1H-indol-3-yl)urea] | 5.00 to 6.00 |
| O=C(Nc1ccc2c(c1)N(CC1CC1)CCS2)Nc1ccc2cc[nH]c2c1 [Example 65, 1-(4-(cyclopropyl-methyl)-3,4-dihydro-2H-benzo[b][1, 4]thiazin-6-yl)-3-(1H-indol-6-yl)urea] | ≥ 6.00 |
| O=C(Nc1ccc2c(c1)N(CC1CCCC1)CCS2)Nc1ccc2cc[nH]c2c1 [Example 67, 1-(4-(cyclopentylmethyl)-3,4-dihydro-2H-benzo[b][1, 4]thiazin-6-yl)-3-(1H-indol-6-yl)urea] | ≥ 6.00 |
| O=C(Nc1ccc2c(c1)N(CCN1CCCC1)CCS2)Nc1ccc2cc[nH]c2c1 [Example 68, 1-(1H-indol-6-yl)-3-(4-(2-(pyrrolidin-1-yl)ethyl)-3,4-dihydro-2H-benzo[b][1, 4]thiazin-6-yl)urea] | 5.00 to 6.00 |
| O=C(Nc1ccc2c(c1)OCC(=O)N2Cc1ccccc1)Nc1ccc2cc[nH]c2c1 [Example 69, 1-(4-Benzyl-3-oxo-3,4-dihydro-2H-benzo[b][1,4]oxazin-7-yl)-3-(1H-indol-6-yl)urea] | ≥ 6.00 |

Further lines, results first:

| pIC50 | Compound |
| --- | --- |
| 5.00 to 6.00 | O=C1CCc2ccc(NC(=O)Nc3ccc4c(c3)N(Cc3ccccc3)C(=O)CS4)cc2N1 [Example 29, 1-(4-benzyl-3-oxo-3,4-dihydro-2H-benzo[b][1, 4]thiazin-6-yl)-3-(2-oxo-1,2,3,4-tetrahydro-quinolin-7-yl)urea] |
| 5.00 to 6.00 | O=C(Nc1ccc2c(c1)N(Cc1ccccc1)C(=O)CS2)Nc1ccc2nc[nH]c2c1 [Example 30, 1-(1H-benzo[d]imidazol-6-yl)-3-(4-benzyl-3-oxo-3,4-dihydro-2H-benzo[b][1, 4]thiazin-6-yl)urea] |
| 5.00 to 6.00 | NC(=O)c1ccc(NC(=O)Nc2ccc3c(c2)N(Cc2ccccc2)C(=O)CS3)cc1 [Example 33, 4-(3-(4-benzyl-3-oxo-3,4-dihydro-2H-benzo[b][1, 4]thiazin-6-yl)ureido) benzamide] |
| 5.00 to 6.00 | CN1Cc2ccc(NC(=O)Nc3ccc(F)cc3)cc2N(Cc2ccccc2)C1=O [Example 39, 1-(1-Benzyl-3-methyl-2-oxo-1,2,3,4-tetrahydroquinazolin-7-yl)-3-(4-fluorophenyl)urea] |
| 5.00 to 6.00 | O=C1CSc2ccc(COCc3ccc(F)cc3)cc2N1Cc1c(F)cccc1Cl [Example 42] |
| 5.00 to 6.00 | O=C1CSc2ccc(-c3ncc(-c4ccccc4)[nH]3)cc2N1Cc1c(F)cccc1Cl [Example 43, 4-(2-Chloro-6-fluorobenzyl)-6-(t-phenyl-1H-imidazol-2-yl)-2H-benzo[b][1,4]thiazin-3(4H)-one] |
| 5.00 to 6.00 | O=C1CSc2ccc(-c3n[nH]c(-c4ccccc4)n3)cc2N1Cc1c(F)cccc1Cl [Example 44, 4-(2-Chloro-6-fluorobenzyl)-6-(5-phenyl-1H-1,2,4-triazol-3-yl)-2H-benzo[b][1,4]thiazin-3(4H)-one] |
| < 5.00 | O=C1CSc2ccc(-c3nc(-c4ccccc4)co3)cc2N1Cc1c(F)cccc1Cl [Example 46, 4-(2-Chloro-6-fluorobenzyl)-6-(4-phenyloxazol-2-yl)-2H-benzo[b][1,4]thiazin-3(4H)-one] |
| 5.00 to 6.00 | O=C(Cc1ccc2cc[nH]c2c1)Nc1ccc2c(c1)N(Cc1ccccc1)C(=O)CS2 [Example 47, N-(4-Benzyl-3-oxo-3,4-dihydro-2H-benzo[b][1,4]thiazin-6-yl)-2-(1H-indol-6-yl)acetamide] |
| ≥ 6.00 | O=C(Nc1ccc2c(c1)N(Cc1ccccc1)CCS2)Nc1ccc2cc[nH]c2c1 [Example 50, 1-(4-Benzyl-3,4-dihydro-2H-benzo[b][1,4]thiazin-6-yl)-3-(1H-indol-6-yl)urea] |
| 5.00 to 6.00 | O=C(Nc1ccc2c(c1)NCCO2)Nc1ccc2c(c1)N(Cc1ccccc1)C(=O)CS2 [Example 51, 1-(4-benzyl-3-oxo-3,4-dihydro-2H-benzo[b][1, 4]thiazin-6-yl)-3-(3,4-dihydro-2H-benzo[b][1, 4]oxazin-6-yl)urea] |
| < 5.00 | O=C(Nc1ccc2c(c1)N(C(=O)c1ccccc1)CCS2)Nc1ccc2cc[nH]c2c1 [Example 57, 1-(4-benzoyl-3,4-dihydro-2H-benzo[b][1, 4]thiazin-6-yl)-3-(1H-indol-6-yl)urea] |
| 5.00 to 6.00 | CN(C(=O)Nc1ccc2c(c1)N(Cc1ccccc1)C(=O)CS2)c1ccc2cc[nH]c2c1 [Example 59, 3-(4-benzyl-3-oxo-3,4-dihydro-2H-benzo[b][1, 4]thiazin-6-yl)-l-(1H-indol-6-yl)-1-methylurea] |
| 5.00 to 6.00 | Cc1cc(CN2C(=O)CSc3ccc(NC(=O)Nc4ccc5cc[nH]c5c4)cc32)ccn1 [Example 60] |
| ≥ 6.00 | O=C(Nc1ccc2c(c1)N(Cc1ccncc1)CCS2)Nc1ccc2cc[nH]c2c1 [Example 66, 1-(1H-indol-6-yl)-3-(4-(pyridin-4-ylmethyl)-3,4-dihydro-2H-benzo[b][1, 4]thiazin-6-yl)urea] |
| ≥ 6.00 | O=C(Nc1ccc2c(c1)N(c1ccccc1)CCS2)Nc1ccc2cc[nH]c2c1 [Example 72, 3-(1H-Indol-6-yl)-3-(4-phenyl-3,4-dihydro-2H-benzo[b][1,4]thiazin-6-yl)urea] |
| 5.00 to 6.00 | CN1CCN(Cc2ccccc2)c2cc(NC(=O)Nc3ccc4cc[nH]c4c3)ccc21 [Example 73, 1-(4-Benzyl-1-methyl-1,2,3,4-tetrahydroquinoxalin-6-yl)-3-(1H-indol-6-yl)urea] |
